Results as given in patent US9193731B2, “Antimicrobial compounds and methods of making and using the same” (Melinta Therapeutics, Inc., priority 2009, dated 2015).

These compounds were tested on Escherichia coli strain ATCC25922 (assay: standard microdilution assay to determine minimum inhibitory concentrations (MICs)). Settings: Escherichia coli strain ATCC25922, microdilution.
Format: cell-based
Description: Minimum inhibitory concentrations (MICs) are determined by the microdilution method, typically in a final volume of 100 microliters, according to protocols outlined by The Clinical and Laboratory Standards Institute [CLSI; formerly the National Committee for Clinical Laboratory Standards (NCCLS)]. See CLSI: Methods for dilution antimicrobial susceptibility tests for bacteria that grow aerobically; approved standard-fifth edition. Wayne, Pa.: NCCLS; 2000. The assays can be also be performed in microtiter trays according to conventional methodologies as published by the CLSI. See CLSI. Methods for Dilution Antimicrobial Susceptibility Tests for Bacteria That Grow Aerobically; Approved Standard—Seventh Edition. CLSI Document M7-A7 [ISBN 1-56238-587-9] CLSI, 940 West Valley Road, Suite 1400, Wayne Pa. 19087-1898 USA, 2006).
The compounds of the present invention were tested for antimicrobial activity. The compounds were run against Escherichia coli strain ATCC25922 using a standard microdilution assay to determine minimum inhibitory concentrations (MICs). […] A “N/A” means that data is unavailable. It will be recognized by one skilled in the art that the compounds can be assessed against other bacterial organisms and that the presentation of data for activity against Escherichia coli is illustrative and in no way is intended to limit the scope of the present invention. The compounds of the present invention can be assayed against a range of other microorganisms depending upon the performance activity desired to be gathered. Furthermore, the “+”, “−”, and “N/A” representation and the selection of a cutoff value of 16 micrograms/ml is also illustrative and in no way is intended to limit the scope of the present invention.

| Structure (SMILES) | E. coli ATCC25922 MIC |
| --- | --- |
| N=C(N)NCCCNCc1ccc(-n2cc3cc(-c4cccc(CCCN)c4)[nH]c3nc2=O)cc1 [Compound 1446] | + (a “+” indicates that the compound has an MIC value of 16 micrograms/ml or less) |
| N=C(N)NCCCNCc1ccc(-n2cc3cc(-c4cccc(S(=O)(=O)N(CC5CC5)C5CCNCC5)c4)[nH]c3nc2=O)cc1 [Compound 1018] | + (a “+” indicates that the compound has an MIC value of 16 micrograms/ml or less) |
| N=C(N)NCCCNCc1ccc(-n2cc3cc(-c4cc(OCC(F)CN)cc(-c5cccnc5)c4)[nH]c3nc2=O)cc1 (stereo not drawn) [Compound 2001a] | − (a “−” indicates that the compound has an MIC value greater than 16 micrograms/ml) |
| N=C(N)NCCCNCc1ccc(-n2cc3cc(-c4cc(OCCCN)cc(N5CCNCC5)c4)[nH]c3nc2=O)cc1 [Compound 2010a] | + (a “+” indicates that the compound has an MIC value of 16 micrograms/ml or less) |
| NCCCCOc1ccc(-c2cn3cc(-c4ccc(S(=O)(=O)NC5CCNCC5)cc4)[nH]c3nc2=O)cc1 [Compound 824] | − (a “−” indicates that the compound has an MIC value greater than 16 micrograms/ml) |
| N=C(N)NCCCNCc1ccc(-n2cc3cc(-c4cc(C(=O)N5CCC(F)(F)CC5)cc(N5CCNCC5)c4)[nH]c3nc2=O)cc1 [Compound 1074] | + (a “+” indicates that the compound has an MIC value of 16 micrograms/ml or less) |
| N=C(N)NCCCNCc1ccc(-n2cc3cc(-c4cccc(OCCC5(N)CCCC5)c4)[nH]c3nc2=O)cc1 [Compound 1447] | + (a “+” indicates that the compound has an MIC value of 16 micrograms/ml or less) |
| N=C(N)NCCCNCc1ccc(-n2cc3cc(-c4cc(C(F)(F)F)cc(S(=O)(=O)NCCN)c4)[nH]c3nc2=O)cc1 [Compound 2067a] | + (a “+” indicates that the compound has an MIC value of 16 micrograms/ml or less) |
| CSCc1cc(CCCCN)cc(-c2cc3cn(-c4ccc(CNCCCNC(=N)N)cc4)c(=O)nc3[nH]2)c1 [Compound 2083a] | + (a “+” indicates that the compound has an MIC value of 16 micrograms/ml or less) |
| N=C(N)NCCCNCc1ccc(-n2cc3cc(-c4ccc(S(=O)(=O)N(Cc5ccccc5SC(F)(F)F)C5CCOCC5)cc4)[nH]c3nc2=O)cc1 [Compound 876] | − (a “−” indicates that the compound has an MIC value greater than 16 micrograms/ml) |
| CC1CN(S(=O)(=O)c2ccc(-c3cc4cn(-c5ccc(CNCCCNC(=N)N)cc5)c(=O)nc4[nH]3)cc2)CC(C)N1 (stereo not drawn) [Compound 872] | + (a “+” indicates that the compound has an MIC value of 16 micrograms/ml or less) |
| CC(C)(C)NCC(=O)Nc1ccc(-c2cc3cn(-c4ccc(C(=O)NCCCNC(=N)N)cc4)c(=O)nc3[nH]2)cc1 [Compound 1281] | + (a “+” indicates that the compound has an MIC value of 16 micrograms/ml or less) |
| N=C(N)NCCCNCc1ccc(-n2cc3cc(-c4cccc(S(=O)(=O)NCCN)c4)[nH]c3nc2=O)cc1 [Compound 2007a] | + (a “+” indicates that the compound has an MIC value of 16 micrograms/ml or less) |
| N=C(N)NCCCNCC(O)Cn1cc2cc(-c3ccc(S(=O)(=O)NC4CCNCC4)cc3)[nH]c2nc1=O (stereo not drawn) [Compound 977] | + (a “+” indicates that the compound has an MIC value of 16 micrograms/ml or less) |
| N=C(N)NCCCNCc1ccc(-n2cc3cc(-c4cccc(C(NCCN)C(F)(F)F)c4)[nH]c3nc2=O)cc1 (stereo not drawn) [Compound 2025a] | + (a “+” indicates that the compound has an MIC value of 16 micrograms/ml or less) |
| N=C(N)NCCCNCc1ccc(-n2cc3cc(-c4cccc(OC[C@@H]5CCNC5)c4)[nH]c3nc2=O)cc1 [Compound 1423] | + (a “+” indicates that the compound has an MIC value of 16 micrograms/ml or less) |
| CS(=O)(=O)NCCc1cc(OCC(F)CN)cc(-c2cc3cn(-c4ccc(CNCCCNC(=N)N)cc4)c(=O)nc3[nH]2)c1 (stereo not drawn) [Compound 2031a] | − (a “−” indicates that the compound has an MIC value greater than 16 micrograms/ml) |
| N=C(N)NCCCNCc1ccc(-n2cc3cc(-c4ccc(S(=O)(=O)N(CCCn5cc(Cl)cn5)C5CCNCC5)cc4)[nH]c3nc2=O)cc1 [Compound 1003] | + (a “+” indicates that the compound has an MIC value of 16 micrograms/ml or less) |
| N=C(N)N[C@@H]1CCN(Cc2ccc(-n3cc4cc(-c5ccc(S(=O)(=O)N(CC6CCOCC6)C6CCNCC6)cc5)[nH]c4nc3=O)cc2)C1 [Compound 1206] | − (a “−” indicates that the compound has an MIC value greater than 16 micrograms/ml) |
| Cn1c(CCCN(C2CCNCC2)S(=O)(=O)c2ccc(-c3cc4cn(-c5ccc(CNCCCNC(=N)N)cc5)c(=O)nc4[nH]3)cc2)nc2ccccc21 [Compound 841] | + (a “+” indicates that the compound has an MIC value of 16 micrograms/ml or less) |
| Cc1cc(-n2cc3cc(-c4cccc(OCCCN)c4)[nH]c3nc2=O)ccc1CNCCCNC(=N)N [Compound 1280] | + (a “+” indicates that the compound has an MIC value of 16 micrograms/ml or less) |
| N#CCCCN(C1CCNCC1)S(=O)(=O)c1ccc(-c2cc3cn(-c4ccc(CNCCCNC(=N)N)cc4)c(=O)nc3[nH]2)cc1 [Compound 842] | + (a “+” indicates that the compound has an MIC value of 16 micrograms/ml or less) |
| N=C(N)NCCCNCc1ccc(-n2cc3cc(CCS(=O)(=O)N(CC4CCOCC4)C4CCNCC4)[nH]c3nc2=O)cc1 [Compound 930] | + (a “+” indicates that the compound has an MIC value of 16 micrograms/ml or less) |
| Nc1nccc(CCCNCc2ccc(-n3cc4cc(-c5ccc(S(=O)(=O)NC6CCNCC6)cc5)[nH]c4nc3=O)cc2)n1 [Compound 1132] | − (a “−” indicates that the compound has an MIC value greater than 16 micrograms/ml) |

Same assay, conditions: Escherichia coli, ATCC25922, Escherichia coli strain ATCC25922, microdilution; read-out: E. coli ATCC25922 MIC

| MIC | Structure (SMILES) |
| --- | --- |
| < 16 µg/mL | N=C(N)NCCCNCc1ccc(-n2cc3cc([C@@H]4C[C@@H](N)[C@@H](CO)O4)[nH]c3nc2=O)cc1 [Compound 1267] |
| < 16 µg/mL | N=C(N)NCCCN(CCCN)Cc1ccc(-n2cc3cc[nH]c3nc2=O)cc1 [Compound 194] |
| > 16 µg/mL | NCCCNCc1ccc(-n2cc3cc(CN4CCS(=O)(=O)CC4)[nH]c3nc2=O)cc1 [Compound 613] |
| < 16 µg/mL | N=C(N)NCCCNCc1ccc(-n2cc3cc(-c4cccc(N5CCNCC5)c4)[nH]c3nc2=O)cc1 [Compound 655] |
| > 16 µg/mL | O=c1nc2[nH]c(-c3ccc(S(=O)(=O)NC4CCNCC4)cc3F)cc2cn1-c1ccc(CNCCCCl)cc1 [Compound 250] |
| < 16 µg/mL | N=C(N)NCCCNCc1ccc(-n2cc3cc(C4CCCN(C(=N)N)C4)[nH]c3nc2=O)cc1 (stereo not drawn) [Compound 1211] |
| > 16 µg/mL | CCOCCOc1cccc(-c2cc3cn(-c4ccc(CN)cc4)c(=O)nc3[nH]2)c1 [Compound 1121] |
| > 16 µg/mL | O=c1nc2[nH]c(-c3ccc(S(=O)(=O)NC4CCNCC4)cc3)cc2cn1-c1ccccc1O [Compound 1208] |
| > 16 µg/mL | NCCCNCc1ccc(-c2cn3cc[nH]c3nc2=O)cc1 [Compound 563, 6-{4-[(3-Amino-propylamino)-methyl]-phenyl}-1H-imidazo[1,2-a]pyrimidin-7-one] |
| > 16 µg/mL | NCCCN1CCC(c2cn3cc(-c4ccc(F)cc4)[nH]c3nc2=O)CC1 [Compound 567] |
| < 16 µg/mL | N=C(N)NCCCNC(=O)c1ccc(-n2cc3cc(-c4ccc(C[C@H](N)CO)cc4)[nH]c3nc2=O)cc1 [Compound 1164] |
| > 16 µg/mL | NCc1ccc(-n2cc3cc(-c4ccc(S(=O)(=O)N(CCCc5ccc(O)cc5)C5CCNCC5)cc4)[nH]c3nc2=O)cc1 [Compound 1081] |
| > 16 µg/mL | N=C1NCCCN1CCCCCn1cc2cc(-c3ccc(S(=O)(=O)NC4CCNCC4)cc3)[nH]c2nc1=O [Compound 925] |
| < 16 µg/mL | N=C(N)NCCCNCc1ccc(-c2cn3cc(-c4ccc(C(=O)N5CCNC(=O)C5)cc4)[nH]c3nc2=O)cc1 [Compound 693] |
| > 16 µg/mL | NCCCNCc1ccc(-n2cc3cc(-c4ccccn4)[nH]c3nc2=O)cc1 [Compound 620] |
| > 16 µg/mL | N=C(N)NCCCNCc1ccc(-c2cn3cc(-c4ccc(C(=O)N5CCS(=O)(=O)CC5)cc4)[nH]c3nc2=O)cc1 [Compound 700] |
| > 16 µg/mL | NCCCN(CCCN)Cc1ccc(-n2cc3cc(-c4ccccc4C(F)(F)F)[nH]c3nc2=O)cc1F [Compound 318] |
| > 16 µg/mL | NCCCCN1CCC(n2cc3c(nc2=O)[nH]c2ccccc23)C1 (stereo not drawn) [Compound 542] |
| < 16 µg/mL | N=C(N)NCCCN(CCCN)Cc1ccc(-n2cc3cc(-c4ccc(S(=O)(=O)NC5CCNCC5)cc4)[nH]c3nc2=O)cc1 [Compound 220] |
| < 16 µg/mL | N=C(N)NCCCNC(=O)c1ccc(-n2cc3cc(C4CCCN(C(=N)N)C4)[nH]c3nc2=O)cc1 (stereo not drawn) [Compound 1256] |
| > 16 µg/mL | NCCCNCc1ccc(-n2cc3cc(Cc4ccccc4)[nH]c3nc2=O)cc1 [Compound 621] |
| > 16 µg/mL | N=C(N)NCCCCCn1cc2cc(-c3ccc(S(=O)(=O)NC4CCNCC4)cc3)[nH]c2nc1=O [Compound 887] |

| Structure (SMILES) | MIC |
| --- | --- |
| N=C(N)NCCCN1CC=C(c2cn3cc[nH]c3nc2=O)CC1 [Compound 572] | > 16 µg/mL |
| N=C(N)NCCCNCc1ccc(-c2cn3cc(-c4ccc(C(=O)NC5CN6CCC5CC6)cc4)[nH]c3nc2=O)cc1 (stereo not drawn) [Compound 778] | < 16 µg/mL |
